How the values were obtained:
AMPKα = experiment: Streptavidin agarose affinity assay; assay type: binding, human; conditions: Bio-Eth (4 μM) with or without Eth (12 μM), 3 h
Method: Cell pellets were lysed and the supernatant collection was incubated with indicated antibodies overnight at 4°C, after which protein A/G Plus beads (Santa Cruz Biotechnology) were added and incubated at 4°C for 4 h. The beads were washed 4 times in NETN buffer (1% NP-40, 2 mM EDTA, 40 mM Tris-HCl, 137 mM NaCl, pH 7.4), resuspended in SDS-PAGE loading buffer and boiled for 5 min. For streptavidin agarose affinity assay, cells upon Bio-Eth were lysed; the lysates were incubated with streptavidin agarose, washed and boiled in SDS-PAGE loading buffer. […] Western blot assays were performed.
Figure 4 Eth is a direct activator of AMPK. (A): MCF-7, MDA-MB-231, or MDA-MB-436 cells were treated with increasing concentrations of Eth for 24 h, and AMPK activity assay was performed. (B): The binding mode of Eth docked into AMPK. (C): The binding mode of Eth docked into AMPK. α subunit is green, β subunit is cyan, γ subunit is magenta and Eth is gold. (D): Details of the binding site of Eth in the ADaM site of AMPK. The main residues involved in drug interactions are shown as labeled green sticks. α subunit is green, β subunit is cyan. The pSER-108 was shown in stick and colored by gold. (E) The interaction pattern of Eth with the residues. […] (H): Viability of MCF-7, MDA-MB-231 or MDA-MB-436 cells exposed to Biotin-Eth as determined by MTT assay. […]

[1] = Body weight of xenografted mice; assay type: in vivo, nude mice; conditions: i.p. 2 mg/kg four times a week for 4 weeks
Method: Female nude immunodeficient mice (nu/nu) (weighing ~16 g, 5-week-old) were purchased from Hunan SJA Laboratory Animal Co., Ltd. (Changsha, China), and maintained under specific pathogen-free conditions. Mice were given free access to sterile water and to a standard diet, and maintained under controlled conditions of temperature (22–24°C), humidity (40–70%), and light (12 h light-dark cycles). The present study was approved by Animal Ethics Committee of Hubei University of Medicine. The mice were subcutaneously injected with human BC MDA-MB-231 cells (5 × 10^6 cells which were suspended in 100 μL DMEM) into the right flank of each mouse. Treatments started when tumors reached a palpable size (0.5 cm in diameter). Mice were randomly divided into the following two groups: control group (vehicle; 0.8% DMSO, 12% cremophor, and 8% ethanol in normal saline; n = 8) and Eth-treated group (intraperitoneal injection of […] Eth; n = 8). The mice were treated 5 times per week for a total of […]. Caliper measurements of the longest perpendicular tumor diameters were performed twice a week to estimate the tumor volume, using the following formula: 4π/3 × (width/2)^2 × (length/2), representing the three-dimensional volume of an ellipse. Animals were sacrificed when tumors reached 1.5 cm or if the mice appeared moribund to prevent unnecessary morbidity to the mice. […]

CCOC1c2c(ccc3c2OCO3)-c2ccc3cc4c(cc3c2N1C)OCO4 (centres unmarked) [Eth, Ethoxysanguinarine]
binding of Bio-Eth to AMPKα in presence of unlabeled Eth (AMPKα): significantly attenuated by unlabeled Eth
body weight of the mice [1]: did not significantly reduce the body weight

— paper PMC6960228, “Ethoxysanguinarine, a Novel Direct Activator of AMP-Activated Protein Kinase, Induces Autophagy and Exhibits Therapeutic Potential in Breast Cancer Cells” (Frontiers in Pharmacology, 2020)
